Source: PMC9067983, “Identification of highly selective type II kinase inhibitors with chiral peptidomimetic tails” (Journal of Enzyme Inhibition and Medicinal Chemistry, 2022)
Where a SMILES comes first, the peptide text is derived from it. [ ]: non-standard residue; d: D form. The star is where a group is joined. X1 = Cc1ccc(Nc2ncc3c(n2)N(C)C(=O)N(c2cc(C(=O)*)ccc2C)C3)cn1; Aib = CC(C)(N)C(=O)O

Tests used:
Assay in all cases: kinase selectivity profiling
Format in all cases: biochemical
Conditions in all cases: 10µM ATP, read-out: % inhibition (relative to DMSO)
Fgr = target: T1, Fgr (Homo sapiens, UniProt P09769)
T1 construct: purchased Reaction Biology Corp
Experimental: (§1) Full panel kinase profiling and kinase IC50 measurement were performed by using Reaction Biology Corp. (San Diego, USA).

TYRO3/SKY = target: T2, TYRO3/SKY (Homo sapiens, UniProt Q06418)
T2 construct: purchased Reaction Biology Corp
Experimental: as §1

TEC = target: T3, TEC (Homo sapiens, UniProt P42680)
T3 construct: purchased Reaction Biology Corp
T3 sequence (P42680 whole entry): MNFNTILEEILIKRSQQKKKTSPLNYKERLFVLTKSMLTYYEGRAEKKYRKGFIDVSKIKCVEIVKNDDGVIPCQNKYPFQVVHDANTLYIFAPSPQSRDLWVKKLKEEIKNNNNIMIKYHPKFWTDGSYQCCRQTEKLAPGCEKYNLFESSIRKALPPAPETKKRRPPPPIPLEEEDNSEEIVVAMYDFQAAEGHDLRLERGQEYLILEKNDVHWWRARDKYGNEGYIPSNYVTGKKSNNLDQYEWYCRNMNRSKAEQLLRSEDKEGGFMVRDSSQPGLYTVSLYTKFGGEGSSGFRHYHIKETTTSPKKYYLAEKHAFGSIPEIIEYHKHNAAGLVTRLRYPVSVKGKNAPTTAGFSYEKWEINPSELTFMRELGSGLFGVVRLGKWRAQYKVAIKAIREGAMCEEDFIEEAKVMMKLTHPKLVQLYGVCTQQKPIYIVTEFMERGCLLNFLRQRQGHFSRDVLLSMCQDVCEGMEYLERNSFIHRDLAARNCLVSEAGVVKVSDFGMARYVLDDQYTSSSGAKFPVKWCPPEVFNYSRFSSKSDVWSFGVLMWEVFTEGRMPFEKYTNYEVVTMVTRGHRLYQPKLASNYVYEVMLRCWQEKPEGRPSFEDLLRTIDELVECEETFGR
Experimental: as §1

PKCeta = target: T4, PKCeta (Homo sapiens, UniProt P24723)
T4 construct: purchased Reaction Biology Corp
T4 sequence (P24723 whole entry): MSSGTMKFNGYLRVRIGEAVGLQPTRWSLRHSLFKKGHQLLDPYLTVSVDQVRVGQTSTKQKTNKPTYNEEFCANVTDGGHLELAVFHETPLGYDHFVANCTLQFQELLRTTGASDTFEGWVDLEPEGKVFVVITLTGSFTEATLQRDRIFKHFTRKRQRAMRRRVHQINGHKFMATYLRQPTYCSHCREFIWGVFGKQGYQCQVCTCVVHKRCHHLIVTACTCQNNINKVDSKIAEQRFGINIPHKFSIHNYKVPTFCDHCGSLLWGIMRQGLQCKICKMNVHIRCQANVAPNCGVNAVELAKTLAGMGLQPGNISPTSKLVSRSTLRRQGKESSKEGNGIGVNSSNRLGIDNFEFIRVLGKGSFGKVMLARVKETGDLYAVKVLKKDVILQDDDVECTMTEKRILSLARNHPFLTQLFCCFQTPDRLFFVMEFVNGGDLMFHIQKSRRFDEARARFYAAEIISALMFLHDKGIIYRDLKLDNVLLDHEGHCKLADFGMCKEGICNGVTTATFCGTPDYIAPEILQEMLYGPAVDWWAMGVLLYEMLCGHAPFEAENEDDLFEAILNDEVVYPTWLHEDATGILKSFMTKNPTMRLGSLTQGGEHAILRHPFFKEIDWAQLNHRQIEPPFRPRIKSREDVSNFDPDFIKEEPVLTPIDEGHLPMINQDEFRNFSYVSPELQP
Experimental: as §1

MNK2 = target: T5, MNK2 (Homo sapiens, UniProt Q9HBH9)
T5 construct: purchased Reaction Biology Corp
T5 sequence (Q9HBH9 whole entry): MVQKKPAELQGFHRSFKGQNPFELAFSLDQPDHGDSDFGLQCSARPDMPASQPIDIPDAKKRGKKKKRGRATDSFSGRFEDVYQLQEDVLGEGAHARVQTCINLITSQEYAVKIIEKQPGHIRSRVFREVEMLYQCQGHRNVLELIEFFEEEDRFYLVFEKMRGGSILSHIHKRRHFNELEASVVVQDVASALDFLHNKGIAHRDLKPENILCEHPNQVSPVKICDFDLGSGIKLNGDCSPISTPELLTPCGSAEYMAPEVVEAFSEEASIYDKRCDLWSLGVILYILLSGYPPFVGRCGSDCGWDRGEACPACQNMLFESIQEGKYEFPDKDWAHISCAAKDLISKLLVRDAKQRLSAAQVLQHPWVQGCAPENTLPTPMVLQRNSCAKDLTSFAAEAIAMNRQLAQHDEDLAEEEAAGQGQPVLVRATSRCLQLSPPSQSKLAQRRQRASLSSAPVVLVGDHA
Experimental: as §1

DCAMKL2 = target: T6, DCAMKL2 (Homo sapiens, UniProt Q8N568)
T6 construct: purchased Reaction Biology Corp
Experimental: as §1

BRSK1 = target: T7, BRSK1 (Homo sapiens, UniProt Q8TDC3)
T7 construct: purchased Reaction Biology Corp
Experimental: as §1

CK1g2 = target: T8, CK1g2 (Homo sapiens, UniProt P78368)
T8 construct: purchased Reaction Biology Corp
Experimental: as §1

SGK2 = target: T9, SGK2 (Homo sapiens, UniProt Q9HBY8)
T9 construct: purchased Reaction Biology Corp
T9 sequence (Q9HBY8 whole entry): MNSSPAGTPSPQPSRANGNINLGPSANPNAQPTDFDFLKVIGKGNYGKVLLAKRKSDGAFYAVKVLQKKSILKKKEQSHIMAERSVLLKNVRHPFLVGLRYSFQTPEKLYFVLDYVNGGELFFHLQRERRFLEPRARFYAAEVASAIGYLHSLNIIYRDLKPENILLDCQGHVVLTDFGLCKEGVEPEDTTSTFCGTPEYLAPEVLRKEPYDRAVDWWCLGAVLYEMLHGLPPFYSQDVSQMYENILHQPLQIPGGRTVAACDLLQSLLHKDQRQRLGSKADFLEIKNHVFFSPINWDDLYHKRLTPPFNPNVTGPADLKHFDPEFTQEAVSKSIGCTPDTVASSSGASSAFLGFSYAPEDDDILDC
Experimental: as §1

ULK2 = target: T10, ULK2 (Homo sapiens, UniProt Q8IYT8)
T10 construct: purchased Reaction Biology Corp
Experimental: as §1

STK33 = target: T11, STK33 (Homo sapiens, UniProt Q9BYT3)
T11 construct: purchased Reaction Biology Corp
Experimental: as §1

TRKB = target: T12, TRKB (Homo sapiens, UniProt Q16620)
T12 construct: purchased Reaction Biology Corp
Experimental: as §1

CAMK2a = target: T13, CAMK2a (Homo sapiens, UniProt Q9UQM7)
T13 construct: purchased Reaction Biology Corp
T13 sequence (Q9UQM7 whole entry): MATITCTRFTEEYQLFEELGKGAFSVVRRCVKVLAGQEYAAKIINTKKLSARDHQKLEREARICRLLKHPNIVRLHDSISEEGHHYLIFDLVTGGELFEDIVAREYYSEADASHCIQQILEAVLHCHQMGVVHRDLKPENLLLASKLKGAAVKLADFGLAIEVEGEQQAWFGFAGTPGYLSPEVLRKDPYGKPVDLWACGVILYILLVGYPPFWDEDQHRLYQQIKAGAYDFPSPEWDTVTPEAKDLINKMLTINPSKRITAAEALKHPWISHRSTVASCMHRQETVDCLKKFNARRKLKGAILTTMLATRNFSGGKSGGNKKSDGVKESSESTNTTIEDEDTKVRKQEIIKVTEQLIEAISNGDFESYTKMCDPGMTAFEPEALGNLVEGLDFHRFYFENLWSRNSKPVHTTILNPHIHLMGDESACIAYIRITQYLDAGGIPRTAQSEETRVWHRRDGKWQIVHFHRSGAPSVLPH
Experimental: as §1

JNK3 = target: T14, JNK3 (Homo sapiens, UniProt P53779)
T14 construct: purchased Reaction Biology Corp
Experimental: as §1

TESK1 = target: T15, TESK1 (Homo sapiens, UniProt Q15569)
T15 construct: purchased Reaction Biology Corp
Experimental: as §1

RIPK5 = target: T16, RIPK5 (Homo sapiens, UniProt Q6XUX3)
T16 construct: purchased Reaction Biology Corp
Experimental: as §1

HIPK4 = target: T17, HIPK4 (Homo sapiens, UniProt Q8NE63)
T17 construct: purchased Reaction Biology Corp
Experimental: as §1

P38d/MAPK13 = target: T18, P38d/MAPK13 (Homo sapiens, UniProt O15264)
T18 construct: purchased Reaction Biology Corp
Experimental: as §1

LYN B = target: T19, LYN B (Homo sapiens, UniProt P07948)
T19 construct: purchased Reaction Biology Corp
Experimental: as §1

IKKb/IKBKB = target: T20, IKKb/IKBKB (Homo sapiens, UniProt O14920)
T20 construct: purchased Reaction Biology Corp
Experimental: as §1

MYLK4 = target: T21, MYLK4 (Homo sapiens, UniProt Q86YV6)
T21 construct: purchased Reaction Biology Corp
Experimental: as §1

MAPKAPK3 = target: T22, MAPKAPK3 (Homo sapiens, UniProt Q16644)
T22 construct: purchased Reaction Biology Corp
T22 sequence (Q16644 whole entry): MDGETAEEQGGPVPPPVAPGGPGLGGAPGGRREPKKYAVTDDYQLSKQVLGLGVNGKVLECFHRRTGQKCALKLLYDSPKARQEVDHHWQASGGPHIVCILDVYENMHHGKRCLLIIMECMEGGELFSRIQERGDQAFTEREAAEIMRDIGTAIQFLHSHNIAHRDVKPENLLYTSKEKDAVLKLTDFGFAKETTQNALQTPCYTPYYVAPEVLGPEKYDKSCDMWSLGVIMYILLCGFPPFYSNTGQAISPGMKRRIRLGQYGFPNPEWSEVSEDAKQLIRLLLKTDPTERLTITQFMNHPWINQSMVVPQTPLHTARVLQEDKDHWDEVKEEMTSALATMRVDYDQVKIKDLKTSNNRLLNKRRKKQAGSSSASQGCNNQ
Experimental: as §1

MRCKb/CDC42BPB = target: T23, MRCKb/CDC42BPB (Homo sapiens, UniProt Q9Y5S2)
T23 construct: purchased Reaction Biology Corp
Experimental: as §1

STK38L/NDR2 = target: T24, STK38L/NDR2 (Homo sapiens, UniProt Q9Y2H1)
T24 construct: purchased Reaction Biology Corp
Experimental: as §1

MEKK2 = target: T25, MEKK2 (Homo sapiens, UniProt Q9Y2U5)
T25 construct: purchased Reaction Biology Corp
Experimental: as §1

SRMS = target: T26, SRMS (Homo sapiens, UniProt Q9H3Y6)
T26 construct: purchased Reaction Biology Corp
Experimental: as §1

PDGFRb = target: T27, PDGFRb (Homo sapiens, UniProt P09619)
T27 construct: purchased Reaction Biology Corp
Experimental: as §1

TSSK2 = target: T28, TSSK2 (Homo sapiens, UniProt Q96PF2)
T28 construct: purchased Reaction Biology Corp
T28 sequence (Q96PF2 whole entry): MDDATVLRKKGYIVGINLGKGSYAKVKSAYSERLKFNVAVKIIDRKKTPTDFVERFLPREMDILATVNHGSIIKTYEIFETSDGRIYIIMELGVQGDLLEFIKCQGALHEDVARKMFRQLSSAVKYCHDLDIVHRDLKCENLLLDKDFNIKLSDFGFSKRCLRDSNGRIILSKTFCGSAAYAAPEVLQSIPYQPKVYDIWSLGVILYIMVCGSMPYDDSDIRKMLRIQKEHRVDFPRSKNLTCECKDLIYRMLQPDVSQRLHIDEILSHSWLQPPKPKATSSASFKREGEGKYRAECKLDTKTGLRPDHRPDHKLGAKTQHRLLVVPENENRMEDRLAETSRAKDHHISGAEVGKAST
Experimental: as §1

IRAK1 = target: T29, IRAK1 (Homo sapiens, UniProt P51617)
T29 construct: purchased Reaction Biology Corp
Experimental: as §1

PKCG = target: T30, PKCG (Homo sapiens, UniProt P05129)
T30 construct: purchased Reaction Biology Corp
Experimental: as §1

ALK5/TGFBR1 = target: T31, ALK5/TGFBR1 (Homo sapiens, UniProt P36897)
T31 construct: purchased Reaction Biology Corp
Experimental: as §1

Haspin = target: T32, Haspin (Homo sapiens, UniProt Q8TF76)
T32 construct: purchased Reaction Biology Corp
Experimental: as §1

PEAK1 = target: T33, PEAK1 (Homo sapiens, UniProt Q9H792)
T33 construct: purchased Reaction Biology Corp
Experimental: as §1

EPHA4 = target: T34, EPHA4 (Homo sapiens, UniProt P54764)
T34 construct: purchased Reaction Biology Corp
T34 sequence (P54764 20-986): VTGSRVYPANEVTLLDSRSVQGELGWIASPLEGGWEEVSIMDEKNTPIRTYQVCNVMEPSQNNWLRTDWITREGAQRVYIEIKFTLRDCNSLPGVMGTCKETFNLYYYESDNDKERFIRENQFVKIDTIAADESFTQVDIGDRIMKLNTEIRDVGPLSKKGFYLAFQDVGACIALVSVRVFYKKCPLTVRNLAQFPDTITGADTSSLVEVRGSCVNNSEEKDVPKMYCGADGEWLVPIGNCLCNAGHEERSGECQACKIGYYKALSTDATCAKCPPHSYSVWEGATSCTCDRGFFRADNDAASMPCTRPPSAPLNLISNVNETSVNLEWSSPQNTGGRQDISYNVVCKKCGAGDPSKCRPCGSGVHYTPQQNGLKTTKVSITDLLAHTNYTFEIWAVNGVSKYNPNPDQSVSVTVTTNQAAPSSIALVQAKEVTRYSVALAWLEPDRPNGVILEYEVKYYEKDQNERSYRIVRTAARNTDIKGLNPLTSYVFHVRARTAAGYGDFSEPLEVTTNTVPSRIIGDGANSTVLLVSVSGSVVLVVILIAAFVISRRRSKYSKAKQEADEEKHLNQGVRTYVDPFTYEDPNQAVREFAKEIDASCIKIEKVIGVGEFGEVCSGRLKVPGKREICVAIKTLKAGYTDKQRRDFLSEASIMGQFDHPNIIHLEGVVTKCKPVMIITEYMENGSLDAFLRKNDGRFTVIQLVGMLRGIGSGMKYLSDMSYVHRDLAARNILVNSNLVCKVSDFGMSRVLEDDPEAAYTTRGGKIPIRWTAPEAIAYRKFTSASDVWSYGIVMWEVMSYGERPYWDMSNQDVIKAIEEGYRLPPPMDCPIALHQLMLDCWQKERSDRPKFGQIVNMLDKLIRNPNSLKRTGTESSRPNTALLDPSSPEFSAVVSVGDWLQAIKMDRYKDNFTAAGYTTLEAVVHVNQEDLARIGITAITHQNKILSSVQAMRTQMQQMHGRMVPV
Experimental: as §1

PKCepsilon = target: T35, PKCepsilon (Homo sapiens, UniProt Q02156)
T35 construct: purchased Reaction Biology Corp
Experimental: as §1

JNK2 = target: T36, JNK2 (Homo sapiens, UniProt P45984)
T36 construct: purchased Reaction Biology Corp
T36 sequence (P45984 whole entry): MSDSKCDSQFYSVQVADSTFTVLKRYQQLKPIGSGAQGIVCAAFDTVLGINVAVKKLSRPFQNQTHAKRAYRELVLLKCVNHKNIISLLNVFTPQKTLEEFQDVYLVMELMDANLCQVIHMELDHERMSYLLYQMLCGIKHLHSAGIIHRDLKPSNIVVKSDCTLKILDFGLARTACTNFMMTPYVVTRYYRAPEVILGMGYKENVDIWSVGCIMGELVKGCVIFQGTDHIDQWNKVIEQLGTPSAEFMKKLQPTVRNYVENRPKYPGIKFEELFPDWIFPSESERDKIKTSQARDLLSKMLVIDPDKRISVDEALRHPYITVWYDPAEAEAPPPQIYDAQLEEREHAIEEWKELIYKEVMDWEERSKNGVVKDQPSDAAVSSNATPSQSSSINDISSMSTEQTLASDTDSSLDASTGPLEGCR
Experimental: as §1

TRKA = target: T37, TRKA (Homo sapiens, UniProt P04629)
T37 construct: purchased Reaction Biology Corp
Experimental: as §1

SNARK/NUAK2 = target: T38, SNARK/NUAK2 (Homo sapiens, UniProt Q9H093)
T38 construct: purchased Reaction Biology Corp
Experimental: as §1

ITK = target: T39, ITK (Homo sapiens, UniProt Q08881)
T39 construct: purchased Reaction Biology Corp
Experimental: as §1

CDC7/DBF4 = target: T40, CDC7/DBF4 (Homo sapiens, UniProt O00311)
T40 construct: purchased Reaction Biology Corp
Experimental: as §1

DMPK2 = target: T41, DMPK2 (Homo sapiens, UniProt Q6DT37)
T41 construct: purchased Reaction Biology Corp
Experimental: as §1

ULK1 = target: T42, ULK1 (Homo sapiens, UniProt O75385)
T42 construct: purchased Reaction Biology Corp
Experimental: as §1

p70S6Kb/RPS6KB2 = target: T43, p70S6Kb/RPS6KB2 (Homo sapiens, UniProt Q9UBS0)
T43 construct: purchased Reaction Biology Corp
Experimental: as §1

Compound `Cc1ccc(Nc2ncc3c(n2)N(C)C(=O)N(c2cc(C(=O)N[C@H](C(=O)N4CCC[C@H]4C(=O)NC(C)(C)C(=O)N[C@@H](CC(C)C)C(=O)N(C)C)C(C)C)ccc2C)C3)cn1` [7a, (S)-N-(1-(((S)-1-(dimethylamino)-4-methyl-1-oxopentan-2-yl)amino)-2-methyl-1-oxopropan-2-yl)-1-((4-methyl-3-(1-methyl-7-((6-methylpyridin-3-yl)amino)-2-oxo-1,4-dihydropyrimido[4,5-d]pyrimidin-3(2H)-yl)benzoyl)-L-valyl)pyrrolidine-2-carboxamide] (X1-VP[Aib]L-NMe2) has an inhibition at 1 µM (Fgr) of 80%, an inhibition at 1 µM (TYRO3/SKY) of 1% and an inhibition at 1 µM (TEC) of 2%. For the same compound, the inhibition at 1 µM (PKCeta) was 27%, the inhibition at 1 µM (MNK2) was 1% and the inhibition at 1 µM (DCAMKL2) was 0%. It also gave an inhibition at 1 µM (BRSK1) of 2%, an inhibition at 1 µM (CK1g2) of 2% and an inhibition at 1 µM (SGK2) of 0%. For the same compound, the inhibition at 1 µM (ULK2) was 5%, the inhibition at 1 µM (STK33) was 0% and the inhibition at 1 µM (TRKB) was 5%. For the same compound, the inhibition at 1 µM (CAMK2a) was 8%, the inhibition at 1 µM (JNK3) was 1% and the inhibition at 1 µM (TESK1) was 0%. For the same compound, the inhibition at 1 µM (RIPK5) was 0%, the inhibition at 1 µM (HIPK4) was 1% and the inhibition at 1 µM (P38d/MAPK13) was 0%. It also gave an inhibition at 1 µM (LYN B) of 34%, an inhibition at 1 µM (IKKb/IKBKB) of 0% and an inhibition at 1 µM (MYLK4) of 8%. For the same compound, the inhibition at 1 µM (MAPKAPK3) was 2%, the inhibition at 1 µM (MRCKb/CDC42BPB) was 0% and the inhibition at 1 µM (STK38L/NDR2) was 4%. It also gave an inhibition at 1 µM (MEKK2) of 0%, an inhibition at 1 µM (SRMS) of 4% and an inhibition at 1 µM (PDGFRb) of 48%. For the same compound, the inhibition at 1 µM (TSSK2) was 0%, the inhibition at 1 µM (IRAK1) was 14% and the inhibition at 1 µM (PKCG) was 9%. The inhibition at 1 µM (ALK5/TGFBR1) was 0%, the inhibition at 1 µM (Haspin) was 1% and the inhibition at 1 µM (PEAK1) was 44%. For the same compound, the inhibition at 1 µM (EPHA4) was 29%, the inhibition at 1 µM (PKCepsilon) was 1% and the inhibition at 1 µM (JNK2) was 2%. The inhibition at 1 µM (TRKA) was 0%, the inhibition at 1 µM (SNARK/NUAK2) was 6% and the inhibition at 1 µM (ITK) was 7%. It also gave an inhibition at 1 µM (CDC7/DBF4) of 0%, an inhibition at 1 µM (DMPK2) of 0% and an inhibition at 1 µM (ULK1) of 0%. It also gave an inhibition at 1 µM (p70S6Kb/RPS6KB2) of 0%.
